Measurements taken from patent US10987429B2, “Inhibitor of ATP-dependent cellular reverse transporters and method for producing same” (AO “TATKHIMFARMPREPARATY”, priority 2016, dated 2021).
Structures can show the parent of a compound that is named as a salt.

Legend:
Assay type in all cases: cell-based, human
MCF-7 cells = test: Microviscosity of plasma membranes, DPHT fluorescence polarization; conditions: OEP inhibitor 8.7, 87, 870 μg/ml, doxorubicin 1 μM, cholesterol 100 μg/ml, Triton X-100 0.05%, 1 hour
Excerpt: (§1) A key physico-chemical characteristic of cell membranes that affects their physiological activity is microviscosity, a measure of lipid mobility in the bilayer, which plays an important role in membrane permeability and the functioning of membrane proteins. To assess the plasmalemma microviscosity, a fluorescent method is used, based on the use of a lipophilic indicator of diphenylhexatriene (DPHT), whose fluorescence depends on the cell membrane fluidity.
(§2) Cell suspension with a density of 2×10^6 cells/ml was incubated with DPHT at a final concentration of 1 μM for 30 minutes. Next, aliquots (10 μl) of OEP inhibitor solutions were added to the cell suspension using a multichannel dispenser to a final concentration of 8.7; 87 and 870 μg/ml, as well as doxorubicin at a concentration of 1 μM and its composition with an OEP inhibitor (DOX 1 μM+OEP inhibitor 8.7 μg/ml; DOX 1 μM+OEP inhibitor 87 μg/ml). […] Immediately after introducing aliquots of samples, the fluorescence polarization of DPHT was detected for 1 hour with an interval of 10 minutes.

MCF-7/Vin cells = test: as above; conditions: OEP inhibitor 8.7, 87, 870 μg/ml, doxorubicin 1 μM, cholesterol 100 μg/ml, Triton X-100 0.05%, 1 hour
Excerpt: as §1, §2

P-gp (ABCB1) = test: Immunoblotting of P-gp (ABCB1) expression in MCF-7 cells; conditions: 48 hours, doxorubicin 3 μM, OEP inhibitor 261 μg/ml, composition 3 μM: 261 μg/ml
Description: MCF-7, MCF-7-ABCC1-DsRed (with over-expression of MRP-1), MCF-7-ABCC2-BFP (with over-expression of MRP-2), MCF-7-ABCB1-GFP (with P-gp over-expression) cells in concentrations of 3×10^4 cells/cm^2 were cultured in complete DMEM nutrient medium with either doxorubicin added to a final concentration of 3 μM; or an OEP inhibitor to a final concentration of 261 μg/ml; or doxorubicin-OEP inhibitor compositions to a final concentration of 3 μM: 261 μg/ml for 48 hours at 37° C. in the atmosphere of 5% CO2. An adapted and modified ABCAM protocol (http://www.abcam.com/ps/pdf/protocols/wb-beginner.pdf) was used to study proteins by immunoblotting (Western Blot). Monoclonal antibodies to ABCB1 (Cat. No. sc-13131, Santa Cruz) were used at a dilution of 1:200. Anti-mouse antibodies conjugated with HRP—(Cat. No ab6728, Abcam) at a dilution of 1:10,000 were used as secondary. Monoclonal antibodies to β-actin (Cat. No. mAbcam 8226, Abcam) were used at a dilution of 1:2000. The results of the analysis were visualized on ChemiDoc XRS+system (Bio-Rad).

COc1cccc2c1C(=O)c1c(O)c3c(c(O)c1C2=O)C[C@@](O)(C(=O)CO)C[C@@H]3O[C@H]1C[C@H](N)[C@H](O)[C@H](C)O1 [doxorubicin, Doxorubicin (DOX) hydrochloride]
polarization of the fluorescence of DPHT (membrane microviscosity) (MCF-7 cells): did not significantly change
polarization of the fluorescence of DPHT (membrane microviscosity) (MCF-7/Vin cells): did not significantly change
active glycosylated 190 kDa form of ABCB1, immunoblotting (P-gp (ABCB1)): increases the amount of the active form

Triton X-100
polarization of the fluorescence of DPHT (membrane microviscosity) (MCF-7 cells): significant decrease
polarization of the fluorescence of DPHT (membrane microviscosity) (MCF-7/Vin cells): significant decrease

CC(C)CCC[C@@H](C)[C@H]1CC[C@H]2[C@@H]3CC=C4C[C@@H](O)CC[C@]4(C)[C@H]3CC[C@]12C [Cholesterol, cholesterol]
polarization of the fluorescence of DPHT (membrane microviscosity) (MCF-7 cells): significantly increased
polarization of the fluorescence of DPHT (membrane microviscosity) (MCF-7/Vin cells): significantly increased
